Drawing on ChEMBL document CHEMBL2439966, “Development of novel ferulic acid derivatives as potent histone deacetylase inhibitors” (Bioorg Med Chem, 2013), this text covers IC50 for 27 compounds.

Experiment [1] concerns the target Histone deacetylase. Description: Inhibition of HDAC in human HeLa cell nuclear extracts using Color de LysTM after 30 mins. It is filed as protein assay.
In experiment [2] the test system is HeLa. Description: cells. It is filed as functional, cell-based. The settings on record: Homo sapiens, 48 h.
Description: Growth inhibition of human HeLa cells after 48 hrs by MTT assay
Experiment [3] relates to MDA-MB-231. Description: cells. The settings on record: Homo sapiens, MDA-MB-231, 48 h. It is filed as functional, cell-based.
Description: Growth inhibition of human MDA-MB-231 cells after 48 hrs by MTT assay
Experiment [4] concerns MCF7. Description: cells. The settings on record: Homo sapiens, MCF7, 48 h. The experiment is classed as functional, cell-based.
Description: Growth inhibition of human MCF7 cells after 48 hrs by MTT assay

Structures are written as SMILES.

With `COc1cc(/C=C/C(=O)NO)ccc1OCC(=O)Nc1ccc(Br)cc1`, the IC50 was 8.43 µM in experiment [1], greater than 100 µM in experiment [2], 0.76 µM in experiment [3] and 73.6 µM in experiment [4].

In experiment [1], `COc1cc(/C=C/C(=O)Nc2ccccc2N)ccc1OCC(=O)Nc1ccc(F)c(Cl)c1` had an IC50 of 11.5 µM.

The compound `COc1ccc(NC(=O)COc2ccc(/C=C/C(=O)NO)cc2OC)cc1` yielded an IC50 in experiment [1] of 10.8 µM.

`COc1cc(/C=C/C(=O)Nc2ccccc2N)ccc1OCC(=O)Nc1cccc(C(F)(F)F)c1` displayed an IC50 in experiment [1] of 49.6 µM.

`COc1cc(/C=C/C(=O)Nc2ccc(C)cc2N)ccc1OCC(=O)Nc1ccccc1F`: the IC50 in experiment [1] worked out at 11.6 µM.

For the compound `COc1cc(/C=C/C(=O)Nc2ccccc2N)ccc1OCC(=O)Nc1cccc(F)c1`, the IC50 in experiment [1] was 2.82 µM; in experiment [2], 28.1 µM; in experiment [3], greater than 100 µM; in experiment [4], greater than 100 µM.

Consider `COc1cc(/C=C/C(=O)Nc2ccc(C)cc2N)ccc1OCC(=O)Nc1ccc(F)c(Cl)c1`, for which the IC50 in experiment [1] came out at 15.4 µM.

Regarding `COc1cc(/C=C/C(=O)Nc2ccccc2N)ccc1OCC(=O)Nc1ccccc1F`, the IC50 in experiment [1] came to 73.7 µM.

`COc1ccc(NC(=O)COc2ccc(/C=C/C(=O)Nc3ccccc3N)cc2OC)cc1`: the IC50 is 8.95 µM in experiment [1], greater than 100 µM in experiment [2], 48.5 µM in experiment [3] and greater than 100 µM in experiment [4].

For the compound `COc1cc(/C=C/C(=O)Nc2ccc(C)cc2N)ccc1OCC(=O)Nc1cccc(C(F)(F)F)c1`, the IC50 in experiment [1] amounted to 15.1 µM.

Regarding `COc1cc(/C=C/C(=O)Nc2ccccc2N)ccc1OCC(=O)Nc1cc(C(F)(F)F)cc(C(F)(F)F)c1`, the IC50 in experiment [1] worked out at 7.8 µM; in experiment [2] it was 20.8 µM; in experiment [3], 25.3 µM; in experiment [4] it was 43.1 µM.

`COc1cc(/C=C/C(=O)NO)ccc1OCC(=O)Nc1ccccc1F`: the IC50 in experiment [1] is 3.94 µM; in experiment [2], 11.1 µM; in experiment [3] it was 8.3 µM; in experiment [4], greater than 100 µM.

In the case of `COc1cc(/C=C/C(=O)Nc2ccc(C)cc2N)ccc1OCC(=O)Nc1cc(C(F)(F)F)cc(C(F)(F)F)c1`, the IC50 in experiment [1] was 71.4 µM.

In turn, `COc1cc(/C=C/C(=O)NO)ccc1OCC(=O)Nc1cccc(C(F)(F)F)c1` showed an IC50 in experiment [1] of 12.5 µM.

Compound `COc1cc(/C=C/C(=O)Nc2ccccc2N)ccc1OCC(=O)Nc1ccc(Br)cc1` came in with a concentration for half-maximal inhibition (IC50) in experiment [1] of 12.8 µM.

Take `COc1cc(/C=C/C(=O)Nc2ccccc2N)ccc1OCC(=O)Nc1ccc(Cl)c(Cl)c1`: the IC50 in experiment [1] is 10.3 µM; in experiment [2] it was 72.1 µM; in experiment [3] it was 83.4 µM; in experiment [4], greater than 100 µM.

`COc1cc(/C=C/C(=O)Nc2ccc(C)cc2N)ccc1OCC(=O)Nc1ccc(Cl)c(Cl)c1` displayed an IC50 in experiment [1] of 64.5 µM.

In turn, `COc1cc(/C=C/C(=O)Nc2ccc(C)cc2N)ccc1OCC(=O)Nc1ccc(Br)cc1` had an IC50 in experiment [1] of 16.4 µM.

The compound `COc1cc(/C=C/C(=O)Nc2ccccc2N)ccc1OCC(=O)Nc1cc(Br)cc(C(F)(F)F)c1` returned an IC50 in experiment [1] of 24.2 µM.

Turning to `COc1cc(/C=C/C(=O)NO)ccc1OCC(=O)Nc1ccc(F)c(Cl)c1`, the IC50 in experiment [1] turned out to be 49.3 µM.

Compound `COc1ccc(NC(=O)COc2ccc(/C=C/C(=O)Nc3ccc(C)cc3N)cc2OC)cc1` showed an IC50 in experiment [1] of 118 µM.

`COc1cc(/C=C/C(=O)NO)ccc1OCC(=O)Nc1cccc(F)c1`: the IC50 was 9.47 µM in experiment [1], 34.5 µM in experiment [2], 1.45 µM in experiment [3] and 39.5 µM in experiment [4].

In experiment [1], `COc1cc(/C=C/C(=O)NO)ccc1OCC(=O)Nc1ccc(Cl)c(Cl)c1` had an IC50 of 43 µM.

In experiment [1], `COc1cc(/C=C/C(=O)NO)ccc1OCC(=O)Nc1cc(Br)cc(C(F)(F)F)c1` registered an IC50 of 67.8 µM.

In experiment [1], `COc1cc(/C=C/C(=O)Nc2ccc(C)cc2N)ccc1OCC(=O)Nc1cccc(F)c1` came in with an IC50 of 66.6 µM.

Turning to `COc1cc(/C=C/C(=O)Nc2ccc(C)cc2N)ccc1OCC(=O)Nc1cc(Br)cc(C(F)(F)F)c1`, the IC50 in experiment [1] was 7.43 µM; in experiment [2], 84.3 µM; in experiment [3] it was greater than 100 µM; in experiment [4], 92.1 µM.

Compound `COc1cc(/C=C/C(=O)NO)ccc1OCC(=O)Nc1cc(C(F)(F)F)cc(C(F)(F)F)c1` gave an IC50 in experiment [1] of 10.5 µM.

A word on the IC50: it is the concentration at which inhibition is half-maximal. The low end stands for greater potency, the high end for weaker potency.
